Measurements as given in ChEMBL document CHEMBL1126483 (Bioorg Med Chem Lett, 1993).
Peptide text beside a SMILES is read from it.

molecular target: Neurotensin receptor type 1 (Mus musculus) (UniProt O88319); settings: Cerebellum
Sequence (O88319 whole entry): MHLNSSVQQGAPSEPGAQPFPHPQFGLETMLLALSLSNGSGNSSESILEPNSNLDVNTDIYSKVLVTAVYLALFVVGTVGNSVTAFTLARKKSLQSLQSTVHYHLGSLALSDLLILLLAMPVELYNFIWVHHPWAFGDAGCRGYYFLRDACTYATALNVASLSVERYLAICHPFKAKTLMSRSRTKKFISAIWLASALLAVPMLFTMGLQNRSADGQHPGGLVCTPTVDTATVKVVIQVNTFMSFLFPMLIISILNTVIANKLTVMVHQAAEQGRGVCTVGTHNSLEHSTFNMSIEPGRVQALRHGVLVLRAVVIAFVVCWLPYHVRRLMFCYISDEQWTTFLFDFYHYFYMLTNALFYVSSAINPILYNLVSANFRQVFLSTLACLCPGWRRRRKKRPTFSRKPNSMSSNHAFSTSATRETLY
Description: Tested for change in binding affinity in neonatal mouse whole brain (minus cerebellum)

| Ki(1.8x10e-11) [M] | Compound |
| --- | --- |
| 1 | CC[C@@H](C)[C@H](NC(=O)[C@H](Cc1ccc(O)cc1)NC(=O)[C@@H]1CCCN1C(=O)[C@H](CCCNC(=N)N)NC(=O)[C@@H](N)CCCNC(=N)N)C(=O)N[C@@H](CC(C)C)C(=O)O |

molecular target: Neurotensin receptor type 1 (Mus musculus, UniProt O88319); experiment: Inhibition of specific binding of [125I]-Tyr3-NT(1-13) to NT receptors in neonatal mouse whole brain (minus cerebellum); type: tissue-based; settings: not given
Sequence (O88319 whole entry): as above

| Compound | Ki [nM] |
| --- | --- |
| CC[C@H](C)[C@H](NC(=O)[C@H](C)NC(=O)[C@@H]1CCCN1C(=O)[C@H](CCCN=C(N)N)NC(=O)[C@@H](N)CCCN=C(N)N)C(=O)N[C@@H](CC(C)C)C(=O)O | 110 |
| CC[C@H](C)[C@H](NC(=O)[C@H](Cc1ccc(O)cc1)NC(=O)[C@@H]1CCCN1C(=O)[C@H](CCCNC(=N)N)NC(=O)[C@@H](N)CCCNC(=N)N)C(=O)N[C@@H](C)C(=O)O | 200 |
| CC[C@H](C)[C@H](NC(=O)[C@H](Cc1ccc(O)cc1)NC(=O)[C@@H]1CCCN1C(=O)[C@H](C)NC(=O)[C@@H](N)CCCN=C(N)N)C(=O)N[C@@H](CC(C)C)C(=O)O | 2.1 |
| CC(C)C[C@H](NC(=O)[C@H](C)NC(=O)[C@H](Cc1ccc(O)cc1)NC(=O)[C@@H]1CCCN1C(=O)[C@H](CCCNC(=N)N)NC(=O)[C@@H](N)CCCNC(=N)N)C(=O)O (H-RRPYAL-OH) | 4.5 |
| CC[C@H](C)[C@H](NC(=O)[C@H](Cc1ccc(O)cc1)NC(=O)[C@@H]1CCCN1C(=O)[C@H](CCCNC(=N)N)NC(=O)[C@H](C)N)C(=O)N[C@@H](CC(C)C)C(=O)O | 0.25 |
| CC[C@H](C)[C@H](NC(=O)[C@H](Cc1ccc(O)cc1)NC(=O)[C@@H]1CCCN1C(=O)[C@H](CCCNC(=N)N)NC(=O)[C@@H](N)CCCNC(=N)N)C(N)=O | 12000 |
| CC[C@H](C)[C@H](NC(=O)[C@H](C)NC(=O)[C@@H]1CCCN1C(=O)[C@H](CCCN=C(N)N)NC(=O)[C@@H](N)CCCN=C(N)N)C(=O)N[C@@H](C)C(=O)O | 3900 |
| CC[C@H](C)[C@H](NC(=O)[C@H](Cc1ccc(O)cc1)NC(=O)[C@H](C)NC(=O)[C@H](CCCN=C(N)N)NC(=O)[C@@H](N)CCCN=C(N)N)C(=O)N[C@@H](CC(C)C)C(=O)O | 0.92 |

Further lines, results first:

| Ki [nM] | Compound |
| --- | --- |
| 0.013 | CC[C@H](C)[C@H](NC(=O)[C@H](Cc1ccc(O)cc1)NC(=O)[C@@H]1CCCN1C(=O)[C@H](CCCNC(=N)N)NC(=O)[C@H](CCCNC(=N)N)NC(=O)[C@@H]1CCCN1C(=O)[C@H](CCCCN)NC(=O)[C@H](CC(N)=O)NC(C)=O)C(=O)N[C@@H](CC(C)C)C(=O)O (Ac-NKPRRPYIL-OH) |
| 0.21 | CC[C@H](C)[C@H](NC(=O)[C@H](Cc1ccc(O)cc1)NC(=O)[C@@H]1CCCN1C(=O)[C@H](CCCN=C(N)N)NC(=O)[C@H](CCCN=C(N)N)NC(=O)[C@@H]1CCCN1C(=O)[C@H](CCCCN)NC(=O)[C@H](CC(N)=O)NC(=O)[C@H](CCC(=O)O)NC(=O)[C@H](Cc1ccc(O)cc1)NC(C)=O)C(=O)N[C@@H](CC(C)C)C(=O)O (Ac-YENKPRRPYIL-OH) |
| 0.11 | CC[C@H](C)[C@H](NC(=O)[C@H](Cc1ccc(O)cc1)NC(=O)[C@@H]1CCCN1C(=O)[C@H](CCCNC(=N)N)NC(=O)[C@H](CCCNC(=N)N)NC(=O)[C@@H]1CCCN1C(=O)[C@H](CCCCN)NC(=O)[C@H](CC(N)=O)NC(=O)[C@H](CCC(=O)O)NC(=O)[C@H](Cc1ccc(O)cc1)NC(=O)[C@H](CC(C)C)NC(C)=O)C(=O)N[C@@H](CC(C)C)C(=O)O |
| 0.1 | CC[C@H](C)[C@H](NC(=O)[C@H](Cc1ccc(O)cc1)NC(=O)[C@@H]1CCCN1C(=O)[C@H](CCCNC(=N)N)NC(=O)[C@H](CCCNC(=N)N)NC(=O)[C@@H]1CCCN1C(C)=O)C(=O)N[C@@H](CC(C)C)C(=O)O (Ac-PRRPYIL-OH) |
| 0.024 | CC[C@H](C)[C@H](NC(=O)[C@H](Cc1ccc(O)cc1)NC(=O)[C@@H]1CCCN1C(=O)[C@H](CCCNC(=N)N)NC(=O)[C@H](CCCNC(=N)N)NC(=O)[C@@H]1CCCN1C(=O)[C@H](CCCCN)NC(C)=O)C(=O)N[C@@H](CC(C)C)C(=O)O |
| 0.12 | CC[C@H](C)[C@H](NC(=O)[C@H](Cc1ccc(O)cc1)NC(=O)[C@@H]1CCCN1C(=O)[C@H](CCCNC(=N)N)NC(=O)[C@H](CCCNC(=N)N)NC(=O)[C@@H]1CCCN1C(=O)[C@H](CCCCN)NC(=O)[C@H](CC(N)=O)NC(=O)[C@H](CCC(=O)O)NC(C)=O)C(=O)N[C@@H](CC(C)C)C(=O)O (Ac-ENKPRRPYIL-OH) |

molecular target: Neurotensin receptor type 1 (Mus musculus) (UniProt O88319); experiment: Tested for change in binding affinity to Neurotensin (NT) receptor in neonatal mouse whole brain (minus cerebellum); type: tissue-based; settings: not given

| Ki ratio | Compound |
| --- | --- |
| 6100 | CC[C@@H](C)[C@H](NC(=O)[C@H](C)NC(=O)[C@@H]1CCCN1C(=O)[C@H](CCCN=C(N)N)NC(=O)[C@@H](N)CCCN=C(N)N)C(=O)N[C@@H](CC(C)C)C(=O)O |
| 50 | CC[C@@H](C)[C@H](NC(=O)[C@H](Cc1ccc(O)cc1)NC(=O)[C@H](C)NC(=O)[C@H](CCCN=C(N)N)NC(=O)[C@@H](N)CCCN=C(N)N)C(=O)N[C@@H](CC(C)C)C(=O)O |
| 220000 | CC[C@@H](C)[C@H](NC(=O)[C@H](C)NC(=O)[C@@H]1CCCN1C(=O)[C@H](CCCN=C(N)N)NC(=O)[C@@H](N)CCCN=C(N)N)C(=O)N[C@@H](C)C(=O)O |
| 250 | CC(C)C[C@H](NC(=O)[C@H](C)NC(=O)[C@H](Cc1ccc(O)cc1)NC(=O)[C@@H]1CCCN1C(=O)[C@H](CCCN=C(N)N)NC(=O)[C@@H](N)CCCN=C(N)N)C(=O)O (H-RRPYAL-OH) |
| 14 | CC[C@@H](C)[C@H](NC(=O)[C@H](Cc1ccc(O)cc1)NC(=O)[C@@H]1CCCN1C(=O)[C@H](CCCN=C(N)N)NC(=O)[C@H](C)N)C(=O)N[C@@H](CC(C)C)C(=O)O |
| 11000 | CC[C@@H](C)[C@H](NC(=O)[C@H](Cc1ccc(O)cc1)NC(=O)[C@@H]1CCCN1C(=O)[C@H](CCCN=C(N)N)NC(=O)[C@@H](N)CCCN=C(N)N)C(=O)N[C@@H](C)C(=O)O |
| 120 | CC[C@@H](C)[C@H](NC(=O)[C@H](Cc1ccc(O)cc1)NC(=O)[C@@H]1CCCN1C(=O)[C@H](C)NC(=O)[C@@H](N)CCCN=C(N)N)C(=O)N[C@@H](CC(C)C)C(=O)O |
